Experimental findings from US20250115597A1, “TYK2 INHIBITORS AND COMPOSITIONS AND METHODS THEREOF” (LYNK PHARMACEUTICALS CO. LTD., priority 2021, published 2025) are described below.

Where two headings read alike, the source gives them in different places.

Series [1] concerns the target T1, Ba/F3-FL-TYK2-P760L cells (Homo sapiens, UniProt P29597, P760L, cells depend on it).
T1 construct: BaF3-FL-T2P760L (nM)
Nature of the series: Anti-proliferative assay, Ba/F3-FL-TYK2-P760L cells (Cell-Titer Glo). The format is cell-based. Particulars: 72 h, read-out: BaF3-FL-T2P760L IC50. A digest of the protocol:
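Compound exposure ran 72 h at 37 °C in 5% CO2 across nine 3-fold concentrations from a 20 μM top dose, added 24 h after seeding 2000 cells/well.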

The next series concerns the target T2, JAK1-JH2 domain (Homo sapiens, UniProt P23458).
T2 construct: IC50 on JH2 domain activity (nM)
In words: Binding activity test for JH2 domain of JAK1 (Tb-antibody/tracer FRET). The protocol: Binding Activity Test for […] Domain of JAK1 and TYK2 The compounds are prepared in DMSO for 200× top dose, then serial dilute it with 27-fold for 3 more points. Add 8 μL/well in echo source plate, echo will add 75 nL/well with 3-fold serial dilution for 11 points in assay plate. 75 nL DMSO for high control and low control. […] For low control, add 5 μL/well assay buffer. And then spin down at 1000 rpm and centrifuge for 30 seconds. After enzyme system prepared, add 5 μL of Tb-antibody solution into each wells of assay plate. Spin down at 1000 rpm and centrifuge for 30 sec. After Tb-antibody added, also add 5 μL of tracer into the assay plate. Spin down at 1000 rpm and centrifuge for 30 sec. Incubate for 60 mins at 25° C. firstly and then continue to incubate the plate at 4° C. overnight. Read by envision in FRET mode. The Luminescence value was recorded by a multi-label reader Envision (PerkinElmer).

Series [2] is described as follows: Microsomal metabolic stability assay. Particulars: pH 7.4, 0.5 mg/mL protein, 1 μM compound. The format is in vitro ADME. A digest of the protocol:
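Parent loss was tracked by LC/MS/MS at 0, 5, 15, 30 and 45 min, with half-life derived from the ln(% remaining)–time slope. Incubation at 37 °C, pH 7.4 phosphate/EDTA buffer: 0.5 mg/mL microsomes, 1 μM compound, NADPH-regenerated (2 mM).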

The target of the next series is T3, TYK2-JH2 domain (Homo sapiens, UniProt P29597).
T3 construct: IC50 on JH2 domain activity (nM)
T3 sequence (P29597 589-875 limits assumed): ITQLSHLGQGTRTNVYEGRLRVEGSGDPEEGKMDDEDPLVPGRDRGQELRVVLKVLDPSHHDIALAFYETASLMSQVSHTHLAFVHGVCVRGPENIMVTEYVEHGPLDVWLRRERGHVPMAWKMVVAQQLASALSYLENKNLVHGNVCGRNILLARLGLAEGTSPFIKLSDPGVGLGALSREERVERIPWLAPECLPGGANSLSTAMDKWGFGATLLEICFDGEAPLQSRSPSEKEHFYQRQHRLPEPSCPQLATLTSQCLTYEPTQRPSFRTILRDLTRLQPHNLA
In words: Binding activity test for JH2 domain of TYK2 (Tb-antibody/tracer FRET). Particulars: for JAK1/TYK2 selectivity: ratio JAK1-JH2 IC50 / TYK2-JH2 IC50. Put shortly:
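FRET read-out after 60 min at 25° C plus overnight at 4° C; tracer displacement detected via Tb-labelled antibody on the JH2 domain. Dose-response used 11 points at 3-fold dilution.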

Series [3] in a line: Hepatocytes metabolic stability assay. The format is in vitro ADME. Particulars: cryopreserved hepatocytes, human hepatocytes, 1.0×10^6 cells/mL; for CLint scaled at 1 μM: read-out: Human hepatocyte Clint(liver); for half-life at 1 μM: read-out: Human hepatocyte stability T1/2. The protocol: Hepatocytes Metabolic Stability Assay
The vials of cryopreserved hepatocytes were removed from the liquid nitrogen container and immediately immersed in a 37° C. water bath for approximately 2 min. The melted ice pellets were transferred into tubes containing 50 mL of pre-warmed thawing medium and mixed well by gently inverting the tubes, and then centrifuged at 500 rpm for 3 minutes at room temperature. The supernatants were discarded, and cell pellets were re-suspended by adding appropriate volumes of pre-warmed incubation medium. The cells viability of each species was determined using Trypan Blue exclusion. Add 50 μL of pre-warmed 2× dosing solution to the wells designated for different time points. Then 50 μL of cells suspension (2×10^6 cells/mL) were added into appropriate wells at corresponding time points of T15, T30, T60, T120. Start timing and put the plate in an incubator at 37° C. For TO sample, add 300 μL of ACN containing internal standard to the wells, mix gently, then add 50 μL of pre-warmed hepatocytes solution (2×10^6 cells/mL). The concentration of test compound was 1 μM and 1.0×10^6 cells/mL in the final incubation. At each corresponding time point, test and control compounds reaction samples were stopped by adding 300 μL acetonitrile containing internal standard. All sample plates were thoroughly mixed and centrifuged at 5000×g for 15 minutes. The supernatants were diluted at ratio of 1:1 with ultra-pure water for test and positive controls. Then submitted for LC-MS/MS analysis.
The analyte/internal standard peak area ratios were converted to percentage remaining with the following equation: […]
The in vitro elimination constant, k of test compounds and control compounds were calculated from a log linear plot of % Remaining versus time, then the half-life (T1/2), the estimation of the in vitro hepatic intrinsic clearance (CLint) values were calculated from substrate disappearance rate in hepatocytes incubation: […]

The mark [4] stands for this setting: dog liver microsomes, read-out: Dog LM Clint.
[5] abbreviates: dog liver microsomes, read-out: Dog LM T½.
The mark [6] stands for this setting: human liver microsomes, read-out: Human LM Clint.
The mark [7] stands for this setting: human liver microsomes, read-out: Human LM T½.
[8] abbreviates: rat liver microsomes, read-out: Rat LM Clint.
The mark [9] stands for this setting: rat liver microsomes, read-out: Rat LM T½.

T2 sequence (P23458 583-855 limits assumed): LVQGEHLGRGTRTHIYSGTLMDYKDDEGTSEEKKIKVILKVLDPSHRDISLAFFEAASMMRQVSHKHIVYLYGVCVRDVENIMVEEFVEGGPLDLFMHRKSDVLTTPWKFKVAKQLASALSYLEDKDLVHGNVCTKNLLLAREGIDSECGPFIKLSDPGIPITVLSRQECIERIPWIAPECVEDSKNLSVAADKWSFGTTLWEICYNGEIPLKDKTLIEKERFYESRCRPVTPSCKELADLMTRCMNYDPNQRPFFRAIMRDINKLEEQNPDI
T1 sequence (P29597 whole entry P760L): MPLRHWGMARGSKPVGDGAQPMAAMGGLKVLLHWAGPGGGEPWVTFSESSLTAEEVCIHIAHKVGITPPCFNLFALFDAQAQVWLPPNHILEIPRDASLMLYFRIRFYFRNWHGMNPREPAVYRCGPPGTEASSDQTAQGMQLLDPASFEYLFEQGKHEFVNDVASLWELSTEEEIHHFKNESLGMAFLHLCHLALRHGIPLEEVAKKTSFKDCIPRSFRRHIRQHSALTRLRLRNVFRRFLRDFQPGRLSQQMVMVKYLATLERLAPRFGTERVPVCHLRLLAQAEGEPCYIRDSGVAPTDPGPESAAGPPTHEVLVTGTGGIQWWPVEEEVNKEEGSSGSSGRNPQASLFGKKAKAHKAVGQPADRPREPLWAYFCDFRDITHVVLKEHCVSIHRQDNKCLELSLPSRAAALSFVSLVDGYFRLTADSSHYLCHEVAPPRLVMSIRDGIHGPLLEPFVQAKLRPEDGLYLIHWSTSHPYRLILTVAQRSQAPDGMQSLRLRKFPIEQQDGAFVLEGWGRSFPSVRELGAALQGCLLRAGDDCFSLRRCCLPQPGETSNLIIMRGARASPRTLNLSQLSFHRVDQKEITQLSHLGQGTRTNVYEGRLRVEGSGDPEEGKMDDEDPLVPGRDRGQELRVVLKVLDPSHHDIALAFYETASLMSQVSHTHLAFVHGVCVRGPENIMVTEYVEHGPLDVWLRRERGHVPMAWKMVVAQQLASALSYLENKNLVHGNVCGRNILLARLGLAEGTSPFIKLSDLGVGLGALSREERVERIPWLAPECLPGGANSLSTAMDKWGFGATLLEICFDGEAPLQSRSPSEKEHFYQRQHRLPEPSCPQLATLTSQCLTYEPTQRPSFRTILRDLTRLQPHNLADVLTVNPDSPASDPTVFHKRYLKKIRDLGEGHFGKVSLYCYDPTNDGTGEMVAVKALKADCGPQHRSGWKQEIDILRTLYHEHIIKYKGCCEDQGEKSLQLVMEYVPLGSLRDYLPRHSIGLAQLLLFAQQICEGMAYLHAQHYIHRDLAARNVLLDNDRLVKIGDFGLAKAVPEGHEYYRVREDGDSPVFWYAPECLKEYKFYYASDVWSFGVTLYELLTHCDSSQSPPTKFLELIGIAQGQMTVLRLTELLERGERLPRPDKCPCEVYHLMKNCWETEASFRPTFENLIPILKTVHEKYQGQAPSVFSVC

Usually IC50 stands for the concentration at which inhibition is half-maximal. Consider `[2H]C([2H])([2H])NC(=O)c1cnc(NC(=O)C2CC2)cc1Nc1ccc2cnn(CC(N)=O)c2c1OC` [Example 259, 4-((1-(2-Amino-2-oxoethyl)-7-methoxy-1H-indazol-6-yl)amino)-6-(cyclopropanecarboxamido)-N-(methyl-d3)nicotinamide], for which the GI50 in series [1] was more than 5000 nM. Moreover, the results for the IC50 at JAK1-JH2 domain and on TYK2-JH2 domain were 79.9 nM and 6.29 nM, respectively. Also, the microsomal CLint at 1 μM in series [2] (setting [4]) came out at 9.24 µL/min/mg; in series [2] (setting [6]) it was 4.39 µL/min/mg; in series [2] (setting [8]) it was 4.7 µL/min/mg. The half-life at 1 μM in series [2] (setting [5]) came to 2.5 h; in series [2] (setting [7]) it was 5.26 h; in series [2] (setting [9]), 4.92 h. The JAK1/TYK2 selectivity at TYK2-JH2 domain was 12.7.

For `[2H]C([2H])([2H])NC(=O)c1nnc2cc1Nc1cc(cc(-c3ncn(C)n3)c1OC)COCc1nc(ccc1F)N2` [Example 67, 18-Fluoro-10-methoxy-N-(methyl-d3)-11-(1-methyl-1H-1,2,4-triazol-3-yl)-15-oxa-2,4,5,8,21-pentaazatetracyclo[15.3.1.1^{3,7}.1^{9,13}]tricosa-1(20),3,5,7(23),9(22),10,12,17(21),18-nonaene-6-carboxamide], the GI50 in series [1] was determined as 44.4 nM. Moreover, the figures for the microsomal CLint at 1 μM in series [2] (setting [4]), in series [2] (setting [6]) and in series [2] (setting [8]) were 31.9 µL/min/mg, 7.54 µL/min/mg and 47.4 µL/min/mg, respectively. Besides, the half-life at 1 μM in series [2] (setting [5]) was 0.725 h; in series [2] (setting [7]), 3.06 h; in series [2] (setting [9]), 0.488 h; in series [3], more than 4 h. Also, the CLint scaled at 1 μM in series [3] is less than 7.35 mL/min/kg.

On to `[2H]C([2H])([2H])NC(=O)c1cnc(Nc2ccc(F)cn2)cc1Nc1ccn2ncc(C#N)c2c1OC` [Example 257, 4-((3-Cyano-4-methoxypyrazolo[1,5-a]pyridin-5-yl)amino)-6-((5-fluoropyridin-2-yl)amino)-N-(methyl-d3)nicotinamide], for which the GI50 in series [1] was 39.7 nM. Besides, the IC50 on JAK1-JH2 domain amounted to 3.18 nM; at TYK2-JH2 domain it was 0.135 nM. Besides, the microsomal CLint at 1 μM in series [2] (setting [4]) turned out to be 9.01 µL/min/mg; in series [2] (setting [6]) it was 9.51 µL/min/mg; in series [2] (setting [8]) it was 20.2 µL/min/mg. The half-life at 1 μM came out at 2.56 h in series [2] (setting [5]), 2.43 h in series [2] (setting [7]) and 1.14 h in series [2] (setting [9]). On TYK2-JH2 domain, the JAK1/TYK2 selectivity amounted to 23.5.

`[2H]C([2H])([2H])NC(=O)c1cnc(Nc2ccncn2)cc1Nc1ccc2cnn(C([2H])([2H])[2H])c2c1OC` [Example 153, 4-((7-Methoxy-1-(methyl-d3)-1H-indazol-6-yl)amino)-N-(methyl-d3)-6-(pyrimidin-4-ylamino)nicotinamide]: the GI50 in series [1] is 71.3 nM. Further, the IC50 came to 15.1 nM on JAK1-JH2 domain and 0.455 nM at TYK2-JH2 domain. For the same compound, the microsomal CLint at 1 μM in series [2] (setting [4]) came out at 51.9 µL/min/mg; in series [2] (setting [6]) it was 50.4 µL/min/mg; in series [2] (setting [8]), 90.5 µL/min/mg. Further, the half-life at 1 μM is 0.445 h in series [2] (setting [5]), 0.458 h in series [2] (setting [7]) and 0.255 h in series [2] (setting [9]). Besides, the JAK1/TYK2 selectivity on TYK2-JH2 domain was determined as 33.2.

Consider `[2H]C([2H])([2H])NC(=O)c1cnc(Nc2ccc(F)cn2)cc1Nc1ncc2cnn(CC)c2c1OC` [Example 263, 4-((1-Ethyl-7-methoxy-1H-pyrazolo[4,3-c]pyridin-6-yl)amino)-6-((5-fluoropyridin-2-yl)amino)-N-(methyl-d3)nicotinamide], for which, in series [1], the GI50 is 41.7 nM. Also, the IC50 on JAK1-JH2 domain was 25.4 nM; on TYK2-JH2 domain it was 0.29 nM. The microsomal CLint at 1 μM in series [2] (setting [4]) was determined as 97.2 µL/min/mg; in series [2] (setting [6]), 29.2 µL/min/mg; in series [2] (setting [8]) it was 40.9 µL/min/mg. Also, the half-life at 1 μM came out at 0.238 h in series [2] (setting [5]), 0.791 h in series [2] (setting [7]) and 0.566 h in series [2] (setting [9]). The JAK1/TYK2 selectivity on TYK2-JH2 domain was 87.4.

As to `[2H]C([2H])([2H])NC(=O)c1cnc(Nc2ccn(C)n2)cc1Nc1ncc2cnn(CC)c2c1OC` [Example 264, 4-((1-Ethyl-7-methoxy-1H-pyrazolo[4,3-c]pyridin-6-yl)amino)-N-(methyl-d3)-6-((1-methyl-1H-pyrazol-3-yl)amino)nicotinamide], in series [1], the GI50 came to 278 nM. For the same compound, the values for the IC50 at JAK1-JH2 domain and on TYK2-JH2 domain were 73.7 nM and 1.77 nM, respectively. Moreover, the microsomal CLint at 1 μM came to 16.9 µL/min/mg in series [2] (setting [4]), 12.1 µL/min/mg in series [2] (setting [6]) and 15.4 µL/min/mg in series [2] (setting [8]). In addition, the half-life at 1 μM is 1.37 h in series [2] (setting [5]), 1.91 h in series [2] (setting [7]) and 1.5 h in series [2] (setting [9]). Also, the JAK1/TYK2 selectivity on TYK2-JH2 domain came to 41.4.

With `[2H]C([2H])([2H])NC(=O)c1nnc(NC(=O)C2CC2)cc1Nc1cccc(-c2ncn(C)n2)c1OC` [Example 41, 6-(Cyclopropanecarboxamido)-4-((2-methoxy-3-(1-methyl-1H-1,2,4-triazol-3-yl)phenyl)amino)-N-(methyl-d3)pyridazine-3-carboxamide], in series [3], the CLint scaled at 1 μM is less than 17.8 mL/min/kg and the half-life at 1 μM was more than 3.61 h.

On to `[2H]C([2H])([2H])NC(=O)c1cnc(Nc2cnn(C3CC3)c2)nc1Nc1ccc2cnn(CC)c2c1OC([2H])([2H])[2H]` [Example 137, 2-((1-Cyclopropyl-1H-pyrazol-4-yl)amino)-4-((1-ethyl-7-(methoxy-d3)-1H-indazol-6-yl)amino)-N-(methyl-d3)pyrimidine-5-carboxamide], for which, in series [1], the GI50 is 335 nM. In series [3], the CLint scaled at 1 μM worked out at 14.4 mL/min/kg and the half-life at 1 μM came to 2.04 h.

Turning to `[2H]C([2H])([2H])NC(=O)c1cnc(NC(=O)C2CC2)cc1Nc1ncc2cnn(C3CC3)c2c1OC` [Example 267, 6-(Cyclopropanecarboxamido)-4-((1-cyclopropyl-7-methoxy-1H-pyrazolo[4,3-c]pyridin-6-yl)amino)-N-(methyl-d3)nicotinamide], in series [1], the GI50 worked out at 227 nM. On JAK1-JH2 domain, this compound returned an IC50 of 9.25 nM. Also, at TYK2-JH2 domain, the IC50 was found to be 0.181 nM and the JAK1/TYK2 selectivity amounted to 51.1.

On to `[2H]C([2H])([2H])NC(=O)c1cnc(NC(=O)C2CC2)cc1Nc1ccn2ncc(C(C)C#N)c2c1OC` (single isomer, unassigned) [Example 251B, (S*)-4-((3-(1-cyanoethyl)-4-methoxypyrazolo[1,5-a]pyridin-5-yl)amino)-6-(cyclopropanecarboxamido)-N-(methyl-d3)nicotinamide], for which, in series [1], the GI50 amounted to 103 nM. The IC50 on JAK1-JH2 domain worked out at 4.6 nM. Further, on TYK2-JH2 domain, the IC50 turned out to be 0.266 nM and the JAK1/TYK2 selectivity worked out at 17.30.

Consider `[2H]C([2H])([2H])NC(=O)c1cnc(NC(=O)C2CC2)cc1Nc1ccc2cnn(CC)c2c1OC([2H])([2H])[2H]` [Example 132, 6-(Cyclopropanecarboxamido)-4-((1-ethyl-7-(methoxy-d3)-1H-indazol-6-yl)amino)-N-(methyl-d3)nicotinamide], for which the GI50 in series [1] was 70.8 nM. Moreover, the microsomal CLint at 1 μM in series [2] (setting [6]) is 24 µL/min/mg. Moreover, the half-life at 1 μM in series [2] (setting [7]) was 0.963 h. In series [3], the CLint scaled at 1 μM came out at 18.9 mL/min/kg and the half-life at 1 μM was determined as 1.55 h.
